Tests used:
[1] = Stress stability study, open dishes at 50° C or 80° C, 75% RH, 3 days, HPLC impurity analysis; format: physicochemical
Experimental: In the present work, levosulpiride was subjected to stress and compatibility studies using methods published in the European Pharmacopoeia, Supplement 2001, 1572 Assay. Both levosulpiride powder and granules comprising 95 wt % levosulpiride and 5 wt % povidone (PVP) prepared as described in Example 1 were incubated in open dishes in a stability chamber/oven at 50° C. or 80° C., 75% relative humidity (RH) for 3 days. The substances were then analyzed by HPLC (high performance liquid chromatography). The mobile phase (MP) was composed of 10% acetonitrile (ACN), 10% methanol (MeOH) and an 80% solution containing 6.8 g/l of potassium dihydrogen phosphate and 1 g/l of sodium octanesulphonate, pH 3.3. The column was a 0.25 m×4.6 mm, 5 μm Zorbax RX C8 (Agilent, Inc.), flow was set at 1.5 ml/min with a wavelength of 240 nm.

[2] = Excipient compatibility study, HDPE bottles, 40° C, 75% RH, HPLC impurity analysis; format: physicochemical
Experimental: Studies were done to determine compatibility of the levosulpiride with the various excipients used in the formulations described herein. Samples, as described in Table 12 below, were packaged into 60 cc high-density polyethylene (HDPE) bottles with an induction seal, then stored at 40° C., 75% relative humidity (RH). Samples may be taken at various time points to analyze for the presence of impurities.
Various samples comprised of the levosulpiride with excipients as described in Table 11 below were packaged in 60 cc HDPE bottles with induction seals, then stored at 40° C., 75% RH. Samples were analyzed at 1 and 2 months using HPLC according to the method described in Example 6.

[3] = 1 vs. 2 month (one value given)

CCN1CCC[C@H]1CNC(=O)c1cc(S(N)(=O)=O)ccc1OC [Levosulpiride]
Impurities under the stressed condition ([1]; 50° C. or 80° C., 75% RH, 3 days): did not increase | Impurity B RPA (%) ([1]; 50° C./75% RH, Time = 3 days): <0.05% | Levosulpiride peak RPA (%) ([1]; 50° C./75% RH, Time = 3 days): 100% | Unknown Impurity 1 RPA (%) ([1]; 50° C./75% RH, Time = 3 days): <0.05% | Unknown Impurity 2 RPA (%) ([1]; 50° C./75% RH, Time = 3 days): 0.20% | Impurity B RPA (%) ([1]; 80° C./75% RH, Time = 3 days): <0.05% | Levosulpiride peak RPA (%) ([1]; 80° C./75% RH, Time = 3 days): 100% | Unknown Impurity 1 RPA (%) ([1]; 80° C./75% RH, Time = 3 days): <0.05% | Unknown Impurity 2 RPA (%) ([1]; 80° C./75% RH, Time = 3 days): 0.22% | Impurity B RPA (%) ([1]; Time = 0): <0.05% | Levosulpiride peak RPA (%) ([1]; Time = 0): 100% | Unknown Impurity 1 RPA (%) ([1]; Time = 0): <0.05% | Unknown Impurity 2 RPA (%) ([1]; Time = 0): 0.17% | Unknown Impurity 2 RPA (%) ([2]; 1 month): 0.18% | Impurity B RPA (%) [2, 3]: <0.05% | Levosulpiride peak RPA (%) [2, 3]: 100% | Unknown Impurity 1 RPA (%) [2, 3]: <0.05% | Unknown Impurity 2 RPA (%) ([2]; 2 month): 0.19%

Source: patent US20110052700A1, “GASTRIC RETENTIVE PHARMACEUTICAL COMPOSITIONS FOR IMMEDIATE AND EXTENDED RELEASE OF LEVOSULPIRIDE” (DEPOMED, INC., priority 2009, published 2011)
